This note sets out measurements from paper PMC6838142, “Nano-Antagonist Alleviates Inflammation and Allows for MRI of Atherosclerosis” (Nanotheranostics, 2019).

The test system of series [1] is F4/80-positive plaque macrophages. As to the kind of experiment: Immunohistochemistry / plaque macrophage co-staining. It counts as in vivo, mouse. Conditions: mouse, in vivo. The method, then:
Twenty-four hours after nanoparticle injection (see above), mice were euthanized and abdominal aortas were isolated and embedded in Optimal Cutting Temperature compound. After cryotome-sectioning, resulting in 20-30 slides per mouse, 15 slides were sent to Ohio State laser capture microdissection core lab for capture and analysis. The rest of the slides were processed as follows: after fixation in methanol:acetone 50:50 at -20 °C, slides were hydrated in PBS, blocked for 30 min in fish serum (Aqua Block) and stained for 1 h with primary antibodies against F4/80 followed washing and staining with HRP-conjugated secondary antibody for 30 min. DAB peroxidase kit was then used as per manufacturer's instructions followed by mounting. DAB and antibody staining (but not wash steps) was omitted in slides designated for nanoparticle fluorescence visualization. Nanoparticles fluorescence was visualized with Zeiss 510 LSM-meta confocal microscope and 20x objective. DAB F4/80 staining was visualized with Nikon FN1 microscope and same power objective.

The subject of series [2] is NLRP3 inflammasome. As to the kind of experiment: Inflammasome activation immunoblot in BMDMs. Conditions: LPS 50 ng/mL, nigericin 5 µM. The series is classed as cell-based, mouse. The method, then: Immunoblotting was performed as previously described with the following modifications. Briefly, cell lysates were obtained in SDS lysis buffer consisting of 2% SDS, 50 mM Tris-HCl (pH 6.8), 100 mM DTT, 5% Ficoll 400, 0.0001% bromophenol blue and a cocktail of protease inhibitors. Lysates were sonicated on ice before heating at 97 °C for 7 min to completely denature the protein. Protein concentration was determined using IR spectroscopy (which is insensitive to high SDS and DTT concentrations) with a Millipore DirectDetect spectrometer. Lysates were equally loaded at 10-15 µg per lane on BioRad TGX Criterion gels (4-15%) and resolved at 300 V in Tris-Glycine running buffer. Proteins were transferred on nitrocellulose membranes using the BioRad TransBlot turbo according to the manufacturer's instructions. Membranes were blocked in fish serum (Aqua Block) or 5% nonfat dry milk in TBS-T (0.05% Tween 20) and probed overnight at 4 °C with primary antibodies as indicated in Supplementary Table S1. The membranes were washed in TBS-T and incubated with secondary antibodies for 1 h at room temperature. After washing, semi-quantitative visualization of the proteins of interest was enabled using an enhanced chemiluminescence reagent as previously described and the Azure C400 western blot imaging system.
(§1) BMDMs or J774 cells were plated in 48-well plates at 2 x 10^5 per well. Next day, the medium was changed to Opti-MEM (100 μL per well) without serum and the cells were allowed to equilibrate for 3 h. Next, the cells were pretreated with the indicated concentrations of nanoparticles or controls for 3 h followed by the addition of LPS to some wells to the final LPS concentration of 50 ng/mL. LPS priming continued for another 2 h, following which DMSO (vehicle), Nigericin (5 μM) or adenosine triphosphate (ATP) (1 mM) were added to some wells. Cells were incubated for an additional 30 min and cell culture supernatants were collected on ice. Cells were washed with cold PBS once and lysed/processed as described in immunoblotting section. […]
Background: Immunoblotting shows a protein as a band on a membrane.

Series [3] relates to TNFɑ. As to the kind of experiment: TNFɑ release, AlphaLISA. Conditions: inflammasome experiment supernatants, 4 experiments. The series is classed as cell-based, mouse. The method, then: Cytokines were analyzed by EVE Technologies (https://www.evetechnologies.com) using the Luminex 31-Plex kit. Cell culture supernatants were diluted twice with PBS and provided in biological triplicates to EVE Technologies via overnight shipment in dry ice. Individual IL-1β and TNFɑ assays were performed using Perkin Elmer AlphaLISA kits, as per Supplementary Table S1 and vendor instructions.
as §1, with “section. The supernatants (90 μL) were mixed with 10 μL of 10x SDS loading buffer (10% SDS, 10% Ficoll 400, 0.5 M Tris pH 6.8, 0.5 M DTT, and 0.001% bromophenol blue) and heat-denatured as described in the immunoblotting section.” for “section.”
In general terms: In Alpha technology, singlet oxygen from a donor bead excites a nearby acceptor bead.

As to CCTV, the “co-staining with F4/80 in plaque” value in series [1] is given as “co-stained with CCTV”. For the same substance, in series [2], the “IL-1β and its mature form in supernatants (immunoblot)” value is “dose-dependently inhibited the production of IL-1β and its mature form”; the NLRP3 protein entry is given as “markedly decreased, but only in nigericin-stimulated, CCTV-treated cells”; the “cleaved caspase 1 levels” value was “reduced”. For the same substance, in series [3], the TNFɑ release result is “completely unaffected”.
